Test results taken from PubChem BioAssay AID252 (DTP/NCI, 2004).
Several values for one entry are separate records, joined by “and”; a condition that tells them apart may be missing. Equal values may be shown once. Toxic doses and inconclusive results are not listed. *1 amine or outer side, *2 acyl side, *3 side chain or, on linkers, in order; H or OH if unused. Where a SMILES comes first, the peptide text is derived from it. Bridges are numbered along the chain shown (N, C = ends). Roman numbers before positions name the chains, in order. [ ]: non-standard residue; d: D form. Actinocin(9to1) = Cc1c2oc3c(C)ccc(C(=O)[*:1])c3nc-2c(C(=O)[*:2])c(N)c1=O; aThr = C[C@H](O)[C@H](N)C(=O)O; NMeV = CN[C@H](C(=O)O)C(C)C; Sar = CNCC(=O)O

Test system: BDF1 mice, intracerebral L1210 leukemia, survival T/C
Test: NCI In Vivo Anticancer Drug Screen. Data for tumor model L1210 Leukemia (intracerebral) in B6D2F1 (BDF1) mice
Conditions: endpoint: mean survival time, higher = longer survival
Method in brief: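 Transplantable tumour-bearing mice, compound-treated vs vehicle controls; read-out survival, reported as T/C ratio.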

**Q.** What does the source list for `Cc1c2oc3c(C)ccc(C(=O)N[C@@H]4C(=O)N[C@H](C(C)C)C(=O)N5CCC[C@H]5C(=O)N(C)CC(=O)N(C)[C@@H](C(C)C)C(=O)O[C@H]4C)c3nc-2c(C(=O)N[C@@H]2C(=O)N[C@H](C(C)C)C(=O)N3CCC[C@H]3C(=O)N(C)CC(=O)N(C)[C@@H](C(C)C)C(=O)O[C@H]2C)c(N)c1=O` (I: [aThr][dV]P[Sar][NMeV] / II: [aThr][dV]P[Sar][NMeV]; ester I:1-I:C, II:1-II:C; linker I:N-II:N via Actinocin(9to1))?
**A.** T/C (dose: 0.11 mg/kg/injection, schedule: Q01DX001 (ip), vehicle: saline): 97 % of control; T/C (dose: 0.18 mg/kg/injection, schedule: Q01DX001 (ip), vehicle: saline): 102 % of control; T/C (dose: 0.27 mg/kg/injection, schedule: Q01DX001 (ip), vehicle: saline): 102 % of control; T/C (dose: 12.0 micrograms/kg/injection, schedule: Q01DX Z (ip), vehicle: saline): 101 % of control; T/C (dose: 25.0 micrograms/kg/injection, schedule: Q01DX Z (ip), vehicle: saline): 104 % of control; T/C (dose: 50.0 micrograms/kg/injection, schedule: Q01DX Z (ip), vehicle: saline): 102 % of control; T/C (dose: 100.0 micrograms/kg/injection, schedule: Q01DX Z (ip), vehicle: saline): 101 % of control

**Q.** Which T/C (dose: 12.0 mg/kg/injection, schedule: Q01DX Z (ip), vehicle: carboxymethylcellulose (CMC)) does the source give for `CS(=O)(=O)CCN(N=O)C(=N)N[N+](=O)[O-]` here?
**A.** Its T/C is 97 % of control.

**Q.** What about the T/C (dose: 24.0 mg/kg/injection, schedule: Q01DX Z (ip), vehicle: carboxymethylcellulose (CMC)) of the same molecule?
**A.** The T/C was 100 % of control.

**Q.** And the T/C (dose: 48.0 mg/kg/injection, schedule: Q01DX Z (ip), vehicle: carboxymethylcellulose (CMC))?
**A.** The T/C was 109 % of control.

**Q.** And the T/C (dose: 96.0 mg/kg/injection, schedule: Q01DX Z (ip), vehicle: carboxymethylcellulose (CMC))?
**A.** The T/C was 90 % of control.

**Q.** How did the T/C (dose: 0.25 mg/kg/injection, schedule: Q01DX009 (ip), vehicle: saline) turn out when `CCCOC1=C(N2CC2)C(=O)C(OCCC)=C(N2CC2)C1=O` was run?
**A.** Its T/C is 105 % of control.

**Q.** And the T/C (dose: 0.5 mg/kg/injection, schedule: Q01DX005 (ip), vehicle: saline)?
**A.** The T/C was 97 % of control.

**Q.** What about the T/C (dose: 0.5 mg/kg/injection, schedule: Q01DX009 (ip), vehicle: saline) of the same molecule?
**A.** Its T/C is 113 % of control.

**Q.** What about the T/C (dose: 1.0 mg/kg/injection, schedule: Q01DX005 (ip), vehicle: saline) of the same molecule?
**A.** Its T/C is 101 % of control.

**Q.** And the T/C (dose: 1.0 mg/kg/injection, schedule: Q01DX009 (ip), vehicle: saline)?
**A.** Its T/C is 104 % of control and 302 % of control.

**Q.** And the T/C (dose: 2.0 mg/kg/injection, schedule: Q01DX005 (ip), vehicle: saline)?
**A.** The T/C was 108 % of control.

**Q.** What about the T/C (dose: 2.0 mg/kg/injection, schedule: Q01DX009 (ip), vehicle: saline) of the same molecule?
**A.** Its T/C is 111 % of control and 117 % of control.

**Q.** And the T/C (dose: 4.0 mg/kg/injection, schedule: Q01DX005 (ip), vehicle: saline)?
**A.** Its T/C is 106 % of control.

**Q.** And the T/C (dose: 4.0 mg/kg/injection, schedule: Q01DX009 (ip), vehicle: saline)?
**A.** Its T/C is 117 % of control.

**Q.** What does the source list for `O=c1cn[nH]c(=O)[nH]1`?
**A.** T/C (dose: 440.0 mg/kg/injection, schedule: Q01DX001 (ip), vehicle: carboxymethylcellulose (CMC)): 102 % of control; T/C (dose: 670.0 mg/kg/injection, schedule: Q01DX001 (ip), vehicle: carboxymethylcellulose (CMC)): 101 % of control; T/C (dose: 1000.0 mg/kg/injection, schedule: Q01DX001 (ip), vehicle: carboxymethylcellulose (CMC)): 101 % of control

**Q.** How did the T/C (dose: 6.0 mg/kg/injection, schedule: Q01DX001 (ip), vehicle: carboxymethylcellulose (CMC)) turn out when `O=NN(CCCl)C(=O)Nc1ccc(CC(=O)O)cc1` was run?
**A.** Its T/C is 104 % of control.

**Q.** And the T/C (dose: 9.0 mg/kg/injection, schedule: Q01DX001 (ip), vehicle: carboxymethylcellulose (CMC))?
**A.** Its T/C is 106 % of control.

**Q.** What about the T/C (dose: 13.0 mg/kg/injection, schedule: Q01DX001 (ip), vehicle: carboxymethylcellulose (CMC)) of the same molecule?
**A.** The T/C was 110 % of control.

**Q.** What about the T/C (dose: 26.0 mg/kg/injection, schedule: Q01DX001 (ip), vehicle: carboxymethylcellulose (CMC)) of the same molecule?
**A.** The T/C was 104 % of control.

**Q.** Which results are given for `NCCCCS(=O)(=O)Nc1ccc(Nc2c3ccccc3nc3cc([N+](=O)[O-])ccc23)cc1`?
**A.** T/C (dose: 25.0 mg/kg/injection, schedule: Q01DX009 (ip), vehicle: saline): 97 % of control; T/C (dose: 50.0 mg/kg/injection, schedule: Q01DX009 (ip), vehicle: saline): 99 % of control
